This note sets out measurements from article PMC8113725, “Structure–activity relationship of ipglycermide binding to phosphoglycerate mutases” (The Journal of Biological Chemistry, 2021).

In assay [1] the target is E. coli iPGM (Escherichia coli, UniProt P37689). Nature of the assay: biochemical. As to conditions: […].
Assay [2] concerns the target D. immitis iPGM (Dirofilaria immitis, UniProt F4ZE01). Nature of the assay: biochemical.

Bridge positions count the residues as written; N and C are the ends. Square brackets hold non-standard residues; d marks the D form. Peptide text beside a SMILES is read from it. Phe(4-F) = N[C@@H](Cc1ccc(F)cc1)C(=O)O

Usually IC50 stands for the concentration at which inhibition is half-maximal. A high value points to a need for much substance. For `CC(C)C[C@H](NC(=O)[C@H](Cc1ccc(O)cc1)NC(=O)[C@@H]1CSCC(=O)N[C@H](Cc2ccc(O)cc2)C(=O)N[C@@H](CC(=O)O)C(=O)N[C@@H](Cc2ccc(O)cc2)C(=O)N2CCC[C@H]2C(=O)NCC(=O)N[C@@H](CC(=O)O)C(=O)N[C@@H](Cc2ccc(O)cc2)C(=O)N1)C(=O)N[C@@H](Cc1ccc(O)cc1)C(=O)NCC(=O)N[C@H](C(=O)NO)[C@@H](C)O` [Ce-2 C14NHOH], the concentration for half-maximal inhibition (IC50) in assay [1] turned out to be 14000 nM; in assay [2] (Di iPGM Ave IC50 (M)), 2.55e-09 M.
For `CC(C)C[C@H](NC(=O)[C@H](Cc1ccc(O)cc1)NC(=O)[C@@H]1CSCC(=O)N[C@H](Cc2ccc(O)cc2)C(=O)N[C@@H](CC(N)=O)C(=O)N[C@@H](Cc2ccc(O)cc2)C(=O)N2CCC[C@H]2C(=O)NCC(=O)N[C@@H](CC(=O)O)C(=O)N[C@@H](Cc2ccc(O)cc2)C(=O)N1)C(=O)N[C@@H](Cc1ccc(O)cc1)C(=O)NCC(=O)N[C@H](C(=O)N[C@@H](CS)C(N)=O)[C@@H](C)O` [Ce-2 D2N] ({CH2CO}-[dY]NYPGDYCYLYGTC-NH2; thioether N-8), the IC50 came out at 170 nM in assay [1], 1.99e-09 M in assay [2] (Di iPGM Ave IC50 (M)) and 1.87e-09 M in assay [2] (IC50 (M)).
On to `CC(C)C[C@H](NC(=O)[C@H](Cc1ccc(O)cc1)NC(=O)[C@@H]1CSCC(=O)N[C@H](Cc2ccc(O)cc2)C(=O)N[C@@H](CC(=O)O)C(=O)N[C@@H](Cc2ccc(O)cc2)C(=O)N2CCC[C@H]2C(=O)NCC(=O)N[C@@H](CC(=O)O)C(=O)N[C@@H](Cc2ccc(O)cc2)C(=O)N1)C(=O)N[C@@H](Cc1ccc(O)cc1)C(=O)NCC(=O)NCC(=O)N[C@@H](Cc1c[nH]cn1)C(N)=O` [Ce-2 T13G, C14H], for which the figures for the half-inhibitory concentration (IC50) in assay [1] and in assay [2] (Di iPGM Ave IC50 (M)) were 12700 nM and 1.12e-07 M, respectively.
Regarding `CC(C)C[C@H](NC(=O)[C@H](Cc1ccc(O)cc1)NC(=O)[C@@H]1CSCC(=O)N[C@H](Cc2ccc(O)cc2)C(=O)N[C@@H](CC(=O)O)C(=O)N[C@@H](Cc2ccc(F)cc2)C(=O)N2CCC[C@H]2C(=O)NCC(=O)N[C@@H](CC(=O)O)C(=O)N[C@@H](Cc2ccc(O)cc2)C(=O)N1)C(=O)N[C@@H](Cc1ccc(O)cc1)C(=O)NCC(=O)N[C@H](C(=O)N[C@@H](CS)C(N)=O)[C@@H](C)O` [Ce-2 Y3(4F)F] ({CH2CO}-[dY]D[Phe(4-F)]PGDYCYLYGTC-NH2; thioether N-8), the IC50 in assay [1] turned out to be 4180 nM; in assay [2] (Di iPGM Ave IC50 (M)) it was 1.52e-09 M.
Consider `CC(C)C[C@H](NC(=O)[C@H](Cc1ccc(O)cc1)NC(=O)[C@@H]1CSCC(=O)N[C@H](Cc2ccc(O)cc2)C(=O)N[C@@H](CC(=O)O)C(=O)N[C@@H](Cc2ccc(O)cc2)C(=O)N2CCC[C@H]2C(=O)NCC(=O)N[C@@H](CC(=O)O)C(=O)N[C@@H](Cc2ccc(F)cc2)C(=O)N1)C(=O)N[C@@H](Cc1ccc(O)cc1)C(=O)NCC(=O)N[C@H](C(=O)N[C@@H](CS)C(N)=O)[C@@H](C)O` [Ce-2 Y7(4F)F], for which the half-inhibitory concentration (IC50) in assay [1] was 12800 nM; in assay [2] (Di iPGM Ave IC50 (M)), 1.67e-09 M.
On to `CC(C)C[C@H](NC(=O)[C@H](Cc1ccccc1)NC(=O)[C@@H]1CSCC(=O)N[C@H](Cc2ccc(O)cc2)C(=O)N[C@@H](CC(=O)O)C(=O)N[C@@H](Cc2ccc(O)cc2)C(=O)N2CCC[C@H]2C(=O)NCC(=O)N[C@@H](CC(=O)O)C(=O)N[C@@H](Cc2ccccc2)C(=O)N1)C(=O)N[C@@H](Cc1ccc(O)cc1)C(=O)NCC(=O)N[C@H](C(=O)N[C@@H](CS)C(N)=O)[C@@H](C)O` [Ce-2 Y7F, Y9F] ({CH2CO}-[dY]DYPGDFCFLYGTC-NH2; thioether N-8), for which the figures for the half-inhibitory concentration (IC50) in assay [1], in assay [2] (Di iPGM Ave IC50 (M)) and in assay [2] (IC50 (M)) were 4460 nM, 2.07e-08 M and 2.03e-08 M, respectively.
As to `CC(C)C[C@H](NC(=O)[C@H](Cc1ccc(O)cc1)NC(=O)[C@@H]1CSCC(=O)N[C@H](Cc2ccc(O)cc2)C(=O)N[C@@H](CC(=O)O)C(=O)N[C@@H](Cc2ccc(O)cc2)C(=O)N2CCC[C@H]2C(=O)NCC(=O)N[C@@H](CC(=O)O)C(=O)N[C@@H](Cc2ccccc2)C(=O)N1)C(=O)N[C@@H](Cc1ccc(O)cc1)C(=O)NCC(=O)N[C@H](C(=O)N[C@@H](CS)C(N)=O)[C@@H](C)O` [Ce-2 Y7F], the IC50 in assay [1] amounted to 1170 nM; in assay [2] (Di iPGM Ave IC50 (M)), 1.73e-09 M; in assay [2] (IC50 (M)), 1.78e-09 M.
